Assay results reported in PubChem BioAssay AID328 (DTP/NCI, 2004).
Values joined by “and” are separate entries in the source; they are usually repeats but may differ in a detail not shown here. Equal entries are not always repeated. Inconclusive results and toxic doses are left out.

Test system: BDF1 mice, P388 leukemia ip, median survival T/C
Test: NCI In Vivo Anticancer Drug Screen. Data for tumor model P388 Leukemia (intraperitoneal) in B6D2F1 (BDF1) mice
Conditions: endpoint: median survival time, higher = longer survival
Outline: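 Mice carrying the transplantable tumour receive compound or vehicle. Survival is followed in each arm, and the treated measure is divided by the vehicle measure.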

[1] = dose: 50.0 mg/kg/injection, schedule: Q01DX009 (ip), vehicle: saline with Tween-80
[2] = dose: 100.0 mg/kg/injection, schedule: Q01DX009 (ip), vehicle: Klucel (hydroxypropylcellulose) (HPC)
[3] = dose: 100.0 mg/kg/injection, schedule: Q04DX003 (ip), vehicle: Klucel (hydroxypropylcellulose) (HPC)
[4] = dose: 200.0 mg/kg/injection, schedule: Q01DX009 (ip), vehicle: Klucel (hydroxypropylcellulose) (HPC)
[5] = dose: 200.0 mg/kg/injection, schedule: Q04DX003 (ip), vehicle: Klucel (hydroxypropylcellulose) (HPC)
[6] = dose: 6.25 mg/kg/injection, schedule: Q01DX009 (ip), vehicle: Klucel (hydroxypropylcellulose) (HPC)
[7] = dose: 12.5 mg/kg/injection, schedule: Q01DX009 (ip), vehicle: Klucel (hydroxypropylcellulose) (HPC)
[8] = dose: 50.0 mg/kg/injection, schedule: Q04DX003 (ip), vehicle: Klucel (hydroxypropylcellulose) (HPC)
[9] = dose: 25.0 mg/kg/injection, schedule: Q04DX003 (ip), vehicle: Klucel (hydroxypropylcellulose) (HPC)
[10] = dose: 100.0 mg/kg/injection, schedule: Q04DX003 (ip), vehicle: saline with Tween-80
[11] = dose: 200.0 mg/kg/injection, schedule: Q04DX003 (ip), vehicle: saline with Tween-80
[12] = dose: 400.0 mg/kg/injection, schedule: Q04DX003 (ip), vehicle: saline with Tween-80
[13] = dose: 12.5 mg/kg/injection, schedule: Q04DX003 (ip), vehicle: saline with Tween-80
[14] = dose: 25.0 mg/kg/injection, schedule: Q01DX009 (ip), vehicle: Klucel (hydroxypropylcellulose) (HPC)

With `COc1cc2cc3c4cc(OC)c(OC)cc4cc[n+]3cc2cc1OC` the T/C (dose: 5.0 mg/kg/injection, schedule: Q01DX009 (ip), vehicle: saline with Tween-80) was 109 % of control, the T/C (dose: 10.0 mg/kg/injection, schedule: Q01DX009 (ip), vehicle: saline with Tween-80) was 118 % of control and the T/C (dose: 40.0 mg/kg/injection, schedule: Q01DX009 (ip), vehicle: saline with Tween-80) was 159 % of control. The T/C (dose: 40.0 mg/kg/injection, schedule: Q04DX003 (ip), vehicle: saline) was 163 % of control, the T/C (dose: 80.0 mg/kg/injection, schedule: Q04DX003 (ip), vehicle: saline) was 174 % of control and the T/C (dose: 160.0 mg/kg/injection, schedule: Q01DX009 (ip), vehicle: saline with Tween-80) was 154 % of control. The T/C (dose: 160.0 mg/kg/injection, schedule: Q04DX003 (ip), vehicle: saline with Tween-80) was 154 % of control, the T/C (dose: 160.0 mg/kg/injection, schedule: Q04DX003 (ip), vehicle: saline) was 166 % of control and the T/C (dose: 320.0 mg/kg/injection, schedule: Q04DX003 (ip), vehicle: saline with Tween-80) was 122 % of control. For the same molecule, the T/C (dose: 320.0 mg/kg/injection, schedule: Q04DX003 (ip), vehicle: saline) was 120 % of control.

For `CCOC(=O)/C=C(\C)Nc1cccc([N+](=O)[O-])c1`, the T/C (dose: 25.0 mg/kg/injection, schedule: Q01DX009 (ip), vehicle: other) was 110 % of control, the T/C (dose: 50.0 mg/kg/injection, schedule: Q01DX009 (ip), vehicle: other) was 93 % of control and the T/C (dose: 100.0 mg/kg/injection, schedule: Q01DX009 (ip), vehicle: other) was 100 % of control. For the same molecule, the T/C (dose: 200.0 mg/kg/injection, schedule: Q01DX009 (ip), vehicle: other) was 110 % of control and the T/C (dose: 400.0 mg/kg/injection, schedule: Q01DX009 (ip), vehicle: other) was 116 % of control.

For `COc1cc(Nc2nc(Cl)ncc2[N+](=O)[O-])cc(OC)c1OC`, the T/C (dose: 100.0 mg/kg/injection, schedule: Q01DX001 (ip), vehicle: saline with Tween-80) was 104 % of control, the T/C (dose: 200.0 mg/kg/injection, schedule: Q01DX001 (ip), vehicle: saline with Tween-80) was 100 % of control and the T/C (dose: 400.0 mg/kg/injection, schedule: Q01DX001 (ip), vehicle: saline with Tween-80) was 100 % of control.

In the case of `CCCCOCN(COCCCC)C12CC3CC(CC(C3)C1)C2`, the T/C [1] is reported as 120 % of control.

In the case of `CCC1CC2CCC(c3cc4c(cc3OC)N(C)C3C(O)(C(=O)OC)C(OC(C)=O)C5(CC)C=CCN6CCC43C65)c3[nH]c4ccccc4c3CCN(C1)C2` (configuration not stated), the T/C (dose: 0.03 mg/kg/injection, schedule: Q01DX010 (ip), vehicle: saline) is reported as 90 % of control, the T/C (dose: 0.06 mg/kg/injection, schedule: Q01DX010 (ip), vehicle: saline) is reported as 100 % of control and the T/C (dose: 0.13 mg/kg/injection, schedule: Q01DX010 (ip), vehicle: saline) is reported as 90 % of control. The T/C (dose: 0.25 mg/kg/injection, schedule: Q01DX010 (ip), vehicle: saline) was 100 % of control and the T/C (dose: 0.5 mg/kg/injection, schedule: Q01DX010 (ip), vehicle: saline) was 95 % of control.

In the case of `NC(=O)Nc1nc(-c2ccccc2)no1`, the T/C [2] is reported as 95 % of control, the T/C [3] is reported as 100 % of control and the T/C [4] is reported as 100 % of control. The T/C [5] was 109 % of control, the T/C (dose: 400.0 mg/kg/injection, schedule: Q01DX009 (ip), vehicle: Klucel (hydroxypropylcellulose) (HPC)) was 90 % of control and the T/C (dose: 400.0 mg/kg/injection, schedule: Q04DX003 (ip), vehicle: Klucel (hydroxypropylcellulose) (HPC)) was 100 % of control.

`C#CC[N+](CCO)(CCO)CCCCCCCCCCCCCCCCCC` was tested, and the T/C (dose: 3.13 mg/kg/injection, schedule: Q01DX009 (ip), vehicle: Klucel (hydroxypropylcellulose) (HPC)) was 110 % of control, the T/C [6] was 109 % of control and the T/C [7] was 113 % of control and 120 % of control.

For `C=CC(=O)NC1CCCCC1`, the T/C [8] was 90 % of control, the T/C (dose: 75.0 mg/kg/injection, schedule: Q04DX003 (ip), vehicle: Klucel (hydroxypropylcellulose) (HPC)) was 104 % of control and the T/C (dose: 150.0 mg/kg/injection, schedule: Q04DX003 (ip), vehicle: Klucel (hydroxypropylcellulose) (HPC)) was 104 % of control.

For `Cn1c(=O)c2[nH]c(CN(CCCl)CCCl)nc2n(C)c1=O`, the T/C (dose: 0.88 mg/kg/injection, schedule: Q04DX003 (ip), vehicle: saline with Tween-80) was 100 % of control, the T/C (dose: 1.32 mg/kg/injection, schedule: Q04DX003 (ip), vehicle: saline with Tween-80) was 109 % of control and the T/C (dose: 2.0 mg/kg/injection, schedule: Q04DX003 (ip), vehicle: saline with Tween-80) was 119 % of control. For the same molecule, the T/C (dose: 2.4 mg/kg/injection, schedule: Q01DX009 (ip), vehicle: saline with Tween-80) was 154 % of control, the T/C (dose: 3.7 mg/kg/injection, schedule: Q01DX009 (ip), vehicle: saline with Tween-80) was 160 % of control and the T/C (dose: 5.56 mg/kg/injection, schedule: Q01DX009 (ip), vehicle: saline with Tween-80) was 163 % of control and 178 % of control. For the same molecule, the T/C (dose: 8.33 mg/kg/injection, schedule: Q01DX009 (ip), vehicle: saline with Tween-80) was 172 % of control and the T/C (dose: 12.5 mg/kg/injection, schedule: Q01DX009 (ip), vehicle: saline with Tween-80) was 201 % of control.

For `NC(C(=O)O)C1=CCC=CC1` (configuration not stated), the T/C [1] was 98 % of control and the T/C (dose: 100.0 mg/kg/injection, schedule: Q01DX009 (ip), vehicle: saline with Tween-80) was 99 % of control.

In the case of `COc1ccc(C(=O)OCCN(CCN(CCOC(=O)c2ccc(OC)cc2)C(=O)c2ccc(OC)cc2)C(=O)c2ccc(OC)cc2)cc1`, the T/C [6] is reported as 95 % of control, the T/C [7] is reported as 95 % of control and the T/C [9] is reported as 91 % of control. The T/C [8] was 90 % of control, the T/C [3] was 96 % of control and the T/C [5] was 91 % of control.

With `COc1cc([N+](=O)[O-])c(C)cc1NCc1ccc(OC)c(OC)c1` the T/C (dose: 25.0 mg/kg/injection, schedule: Q01DX009 (ip), vehicle: saline) was 100 % of control, the T/C (dose: 50.0 mg/kg/injection, schedule: Q01DX009 (ip), vehicle: saline) was 99 % of control and the T/C (dose: 100.0 mg/kg/injection, schedule: Q01DX009 (ip), vehicle: saline) was 94 % of control.

With `CCCC(Cc1ccccc1)(C(=O)OCC)C(=O)OCC` the T/C [10] was 99 % of control, the T/C [11] was 99 % of control and the T/C [12] was 91 % of control.

For `OC(CBr)(c1ccccc1)c1ccccc1`, the T/C [13] was 95 % of control, the T/C (dose: 50.0 mg/kg/injection, schedule: Q04DX003 (ip), vehicle: saline with Tween-80) was 100 % of control and 115 % of control and the T/C [10] was 99 % of control. The T/C [11] was 112 % of control and the T/C [12] was 111 % of control.

`CCCCCCCCCCCCCCCCNC(C)c1ccccc1` (configuration not stated) was tested, and the T/C [13] was 101 % of control and the T/C (dose: 25.0 mg/kg/injection, schedule: Q04DX003 (ip), vehicle: saline with Tween-80) was 106 % of control.

With `Cc1c(C)c(CC#N)c(C)c(C)c1CC#N` the T/C [14] was 91 % of control, the T/C (dose: 50.0 mg/kg/injection, schedule: Q01DX009 (ip), vehicle: Klucel (hydroxypropylcellulose) (HPC)) was 91 % of control and the T/C [2] was 87 % of control. For the same molecule, the T/C [3] was 92 % of control and the T/C [4] was 91 % of control.

`CCCCCCCCCCOc1ccc(C=O)c(OC)c1` was tested, and the T/C (dose: 100.0 mg/kg/injection, schedule: Q01DX001 (ip), vehicle: Klucel (hydroxypropylcellulose) (HPC)) was 100 % of control, the T/C (dose: 200.0 mg/kg/injection, schedule: Q01DX001 (ip), vehicle: Klucel (hydroxypropylcellulose) (HPC)) was 100 % of control and the T/C (dose: 400.0 mg/kg/injection, schedule: Q01DX001 (ip), vehicle: Klucel (hydroxypropylcellulose) (HPC)) was 104 % of control.

With `COc1ccc(N/N=C(\C)C2(O)Cc3c(O)c4c(c(O)c3C(OC3CC(N)C(O)C(C)O3)C2)C(=O)c2c(OC)cccc2C4=O)cc1` (configuration not stated) the T/C (dose: 1.73 mg/kg/injection, schedule: Q04DX003 (ip), vehicle: water) was 123 % of control and the T/C (dose: 4.8 mg/kg/injection, schedule: Q04DX003 (ip), vehicle: water) was 157 % of control.

In the case of `CCCCNC1(C#N)CCN(Cc2ccccc2)CC1`, the T/C (dose: 6.0 mg/kg/injection, schedule: Q04DX003 (ip), vehicle: Klucel (hydroxypropylcellulose) (HPC)) is reported as 104 % of control, the T/C (dose: 12.0 mg/kg/injection, schedule: Q04DX003 (ip), vehicle: Klucel (hydroxypropylcellulose) (HPC)) is reported as 100 % of control and the T/C [7] is reported as 100 % of control. The T/C [14] was 91 % of control and the T/C [9] was 96 % of control and 112 % of control.

With `CC[C@@]1(O)C[C@H](OC2CC(N(C)C)C(OC3CC4OC5CC(=O)C(C)OC5OC4C(C)O3)C(C)O2)c2c(cc3c(c2O)C(=O)c2c(O)cccc2C3=O)[C@H]1C(=O)OC` (some centres not stated) the T/C (dose: 0.25 mg/kg/injection, schedule: Q01DX009 (ip), vehicle: water) was 109 % of control and the T/C (dose: 4.0 mg/kg/injection, schedule: Q01DX009 (ip), vehicle: water) was 86 % of control.
